Cc1ccc2ccccc2c1
Conditions | solubility (mole fraction)
in 1,4-dioxane, 278.25 K | 0.468
in 1,4-dioxane, 283.25 K | 0.508
in 1,4-dioxane, 288.35 K | 0.575
in 1,4-dioxane, 293.25 K | 0.65
in 1,4-dioxane, 298.35 K | 0.726
in 1,4-dioxane, 303.25 K | 0.817
in acetone, 278.45 K | 0.218
in acetone, 283.25 K | 0.286
in acetone, 288.35 K | 0.368
in acetone, 293.25 K | 0.484
in acetone, 298.35 K | 0.588
in acetone, 303.25 K | 0.741
in ethanol, 278.25 K | 0.0389
in ethanol, 283.25 K | 0.058
in ethanol, 288.35 K | 0.109
in ethanol, 293.25 K | 0.148
in ethanol, 298.35 K | 0.287
in ethanol, 303.25 K | 0.458
in ethylene glycol, 278.25 K | 0.00742
in ethylene glycol, 283.25 K | 0.00811
in ethylene glycol, 288.35 K | 0.00864
in ethylene glycol, 293.25 K | 0.00963
in ethylene glycol, 298.35 K | 0.0102
in ethylene glycol, 303.25 K | 0.0115
in isopropanol, 278.25 K | 0.0276
in isopropanol, 283.25 K | 0.0508
in isopropanol, 288.35 K | 0.077
in isopropanol, 293.25 K | 0.133
in isopropanol, 298.35 K | 0.233
in isopropanol, 303.25 K | 0.43
in n-butanol, 278.25 K | 0.0596
in n-butanol, 283.25 K | 0.0794
in n-butanol, 288.35 K | 0.13
in n-butanol, 293.25 K | 0.223
in n-butanol, 298.35 K | 0.37
in n-butanol, 303.25 K | 0.68
in n-butyl acetate, 278.15 K | 0.621
in n-butyl acetate, 283.15 K | 0.673
in n-butyl acetate, 288.15 K | 0.729
in n-butyl acetate, 293.15 K | 0.787
in n-butyl acetate, 298.15 K | 0.849
in n-butyl acetate, 303.15 K | 0.951
in n-heptane, 278.15 K | 0.502
in n-heptane, 283.15 K | 0.579
in n-heptane, 288.15 K | 0.65
in n-heptane, 293.15 K | 0.726
in n-heptane, 298.15 K | 0.831
in n-heptane, 303.15 K | 0.906
in n-hexane, 278.95 K | 0.283
in n-hexane, 283.25 K | 0.348
in n-hexane, 288.35 K | 0.443
in n-hexane, 293.25 K | 0.55
in n-hexane, 298.35 K | 0.643
in n-hexane, 303.25 K | 0.811

Source: BigSolDB 2.1
